{"source": "ChEMBL document CHEMBL1201862", "about": "“PubChem BioAssay data set” (2004)", "key": {"[1]": {"test": "M. tuberculosis H37Rv growth inhibitors, H37Rv strain (AID 1626)", "format": "functional"}, "[2]": {"test": "Artemis endonuclease inhibitor potency, dose response, biochemical, fluorescence intensity (AID 720701);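 further: Artemis endonuclease enzyme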", "format": "functional"}, "[3]": {"test_system": "H9c2", "test": "cells", "format": "functional, cell-based", "details": "Rattus norvegicus, H9c2, Myocardium"}, "[4]": {"target": "T1, Heat shock factor protein 1 (Mus musculus, UniProt P38532)", "T1 sequence (P38532 whole entry)": "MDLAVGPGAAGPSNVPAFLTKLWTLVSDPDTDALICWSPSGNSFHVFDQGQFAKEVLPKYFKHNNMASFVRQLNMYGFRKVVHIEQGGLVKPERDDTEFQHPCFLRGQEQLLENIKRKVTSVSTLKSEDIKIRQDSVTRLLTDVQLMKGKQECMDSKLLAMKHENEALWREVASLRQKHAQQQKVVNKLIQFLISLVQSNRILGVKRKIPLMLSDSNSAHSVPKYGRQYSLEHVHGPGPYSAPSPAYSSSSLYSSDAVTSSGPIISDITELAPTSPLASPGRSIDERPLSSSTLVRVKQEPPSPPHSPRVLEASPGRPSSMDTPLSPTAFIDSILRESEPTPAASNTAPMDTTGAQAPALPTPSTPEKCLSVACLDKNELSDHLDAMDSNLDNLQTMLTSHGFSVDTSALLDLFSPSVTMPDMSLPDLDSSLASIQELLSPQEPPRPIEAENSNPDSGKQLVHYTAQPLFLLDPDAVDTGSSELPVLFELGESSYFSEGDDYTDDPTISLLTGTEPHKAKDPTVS", "test": "inhibition of MG132-induced HSE-luciferase signal, confirmation, cell-based, NIH3T3, luminescence, dose retest (AID 2382);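 further: NIH3T3 fibroblasts with HSF1-driven luciferase reporter stressed by proteasome inhibitor MG132; luminescence from HSF1-driven luciferase expression after 8 hours of MG132 stress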", "format": "functional"}, "[5]": {"target": "Heat shock protein HSP 90-alpha (Homo sapiens, UniProt P07900)", "format": "functional, organism-based"}, "[6]": {"test": "HepG2 cell cytotoxicity, dose response, cytotoxicity control for Shn3 inhibitor project, CellTiter-Glo, cherry-picked (AID 624134)", "format": "functional, cell-based"}, "[7]": {"test": "inhibitors of intracellular T. cruzi replication, confirmation, NIH3T3 host cells, beta-gal luminescence (AID 2044);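 further: intracellular parasites grown in NIH/3T3 mouse fibroblasts as host cells; luminescent beta-galactosidase reporter signal from transgenic T. cruzi replicating inside host cells; inhibitors lower the luminescence signal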", "format": "functional, cell-based"}, "[8]": {"test": "cells"}, "[9]": {"test_system": "Vero", "test": "host cell cytotoxicity of antiviral hits, dose response, cytotoxicity control for West Nile virus antiviral project, secondary assay (AID 1650)", "format": "functional", "details": "Chlorocebus sabaeus"}, "[10]": {"target": "T2, COUP transcription factor 2 (Homo sapiens, UniProt P24468)", "T2 sequence (P24468 whole entry)": "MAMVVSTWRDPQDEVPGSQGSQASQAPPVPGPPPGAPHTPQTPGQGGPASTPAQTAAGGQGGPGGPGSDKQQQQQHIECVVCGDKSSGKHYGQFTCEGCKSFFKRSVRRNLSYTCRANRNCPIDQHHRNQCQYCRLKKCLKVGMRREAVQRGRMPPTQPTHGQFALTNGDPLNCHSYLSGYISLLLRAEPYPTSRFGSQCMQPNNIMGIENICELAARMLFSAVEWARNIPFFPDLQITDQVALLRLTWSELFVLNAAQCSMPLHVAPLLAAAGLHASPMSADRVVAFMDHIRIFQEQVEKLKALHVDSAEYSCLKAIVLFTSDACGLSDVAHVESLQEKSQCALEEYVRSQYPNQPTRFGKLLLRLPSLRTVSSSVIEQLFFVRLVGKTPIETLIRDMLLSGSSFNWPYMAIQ", "test": "Luminescence-based cell-based high throughput dose response assay to identify inhibitors of COUP-TFII (NR2F2).", "format": "functional"}, "[11]": {"test": "Shn3 3'UTR reporter inhibitors, dose response, cell-based, Clone20 osteoblasts, firefly luciferase, cherry-picked (AID 624132)", "format": "functional"}, "[12]": {"test": "inhibitors of PGC1a acetylation in cells, dose response, cell-based, cherry-picked samples (AID 720514);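 further: potency may reflect raised or lowered acetylation signal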", "format": "functional"}, "[13]": {"test": "control 3'UTR Renilla luciferase suppression, dose response, counter-screen for Shn3 inhibitor project, cell-based, Clone20-Shn3RL, cherry-picked (AID 624133)", "format": "functional"}, "[14]": {"test_system": "Vero", "test": "West Nile virus antiviral activity, cell-based, CPE readout (AID 1621)", "format": "functional", "details": "Chlorocebus sabaeus"}, "[15]": {"test": "inhibitors of Vif binding to APOBEC3G peptide, primary screen, biochemical, TR-FRET, GST-Vif 1-94, biotin-A3G peptide, dose response retest (AID 1117319);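 further: inhibitors lower the FRET signal by blocking Vif and A3G binding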", "format": "functional"}, "[16]": {"target": "T3, Coagulation factor XII (Homo sapiens, UniProt P00748)", "T3 sequence (P00748 whole entry)": "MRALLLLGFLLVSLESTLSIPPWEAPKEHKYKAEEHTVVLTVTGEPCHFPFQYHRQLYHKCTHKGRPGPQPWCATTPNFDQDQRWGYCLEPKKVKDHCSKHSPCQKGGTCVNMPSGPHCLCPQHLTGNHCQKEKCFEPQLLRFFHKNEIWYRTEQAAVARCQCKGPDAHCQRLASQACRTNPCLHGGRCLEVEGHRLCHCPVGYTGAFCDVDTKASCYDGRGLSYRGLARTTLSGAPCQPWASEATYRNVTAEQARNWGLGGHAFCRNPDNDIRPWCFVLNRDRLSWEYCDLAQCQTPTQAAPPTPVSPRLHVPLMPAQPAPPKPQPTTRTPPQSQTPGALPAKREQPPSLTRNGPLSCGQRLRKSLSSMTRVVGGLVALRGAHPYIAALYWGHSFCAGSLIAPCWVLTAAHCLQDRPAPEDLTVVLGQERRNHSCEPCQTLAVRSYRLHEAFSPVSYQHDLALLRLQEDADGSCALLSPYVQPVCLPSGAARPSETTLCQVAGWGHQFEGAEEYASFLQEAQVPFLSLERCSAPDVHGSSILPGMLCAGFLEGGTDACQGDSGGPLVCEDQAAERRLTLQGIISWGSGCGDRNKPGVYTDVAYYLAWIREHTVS", "format": "functional"}, "[17]": {"target": "T4, Epstein-Barr nuclear antigen 1 (Epstein-Barr virus (strain B95-8) (HHV-4) (Human herpesvirus 4), UniProt P03211)", "T4 sequence (P03211 whole entry)": "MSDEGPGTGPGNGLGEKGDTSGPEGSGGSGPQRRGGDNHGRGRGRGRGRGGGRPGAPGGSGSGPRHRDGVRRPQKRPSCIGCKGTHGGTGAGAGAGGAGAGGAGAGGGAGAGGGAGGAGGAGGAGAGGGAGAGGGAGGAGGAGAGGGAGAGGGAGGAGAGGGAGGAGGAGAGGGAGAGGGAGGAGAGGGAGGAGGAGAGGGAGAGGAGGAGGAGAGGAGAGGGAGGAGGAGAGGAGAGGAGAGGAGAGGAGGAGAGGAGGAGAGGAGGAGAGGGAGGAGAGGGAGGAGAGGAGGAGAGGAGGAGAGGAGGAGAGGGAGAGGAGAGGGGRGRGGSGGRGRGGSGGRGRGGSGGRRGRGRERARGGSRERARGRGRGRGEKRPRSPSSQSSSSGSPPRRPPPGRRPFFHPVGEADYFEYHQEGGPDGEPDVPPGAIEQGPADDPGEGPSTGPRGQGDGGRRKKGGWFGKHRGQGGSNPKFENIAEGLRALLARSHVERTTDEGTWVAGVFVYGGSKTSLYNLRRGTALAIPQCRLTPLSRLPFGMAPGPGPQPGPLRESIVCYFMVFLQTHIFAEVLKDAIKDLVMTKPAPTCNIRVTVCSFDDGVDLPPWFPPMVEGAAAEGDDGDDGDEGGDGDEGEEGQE", "test": "EBNA-1 inhibitors, dose response, biochemical, fluorescence polarization, 1536-well (AID 2381);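 further: fluorescence polarization of a Cy5 DNA probe bound by EBNA-1 protein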", "parameters": "species or system human gammaherpesvirus 4"}, "[18]": {"target": "T5, Lytic switch protein BZLF1 (Epstein-Barr virus (strain B95-8) (HHV-4) (Human herpesvirus 4), UniProt P03206)", "T5 sequence (P03206 whole entry)": "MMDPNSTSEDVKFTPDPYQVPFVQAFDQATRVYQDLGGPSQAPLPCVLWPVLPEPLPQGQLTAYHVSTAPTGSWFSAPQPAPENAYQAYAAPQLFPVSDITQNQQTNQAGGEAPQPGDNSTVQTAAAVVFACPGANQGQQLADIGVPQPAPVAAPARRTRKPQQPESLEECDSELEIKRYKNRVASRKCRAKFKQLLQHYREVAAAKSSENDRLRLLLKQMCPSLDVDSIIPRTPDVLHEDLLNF", "test": "EBV ZTA inhibitors, dose response, counter-screen for EBNA-1 inhibitor project, biochemical, fluorescence polarization, Epstein-Barr virus, 1536-well (AID 2377);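 further: fluorescence polarization of Cy5-labelled ZRE DNA probe bound by purified Zta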", "parameters": "species or system human gammaherpesvirus 4"}}, "note": "Active and inactive are the calls of the source."}
{"smiles": "CCOC(=O)c1ccc(NC(=O)CCc2c(C)nc3ncnn3c2C)cc1", "values": [{"measurement": "IC50", "setting": "[1]", "value": "> 100 µM (active)"}]}
{"smiles": "Cc1nc(NC(=O)c2cc3c(C)nn(-c4ccccc4)c3s2)sc1C(=O)Nc1ccccc1", "values": [{"measurement": "IC50", "setting": "[2]", "value": "1.22 µM (active)"}, {"measurement": "IC50", "setting": "[3]", "value": "> 79 µM (inactive)"}]}
{"smiles": "C[C@H]1C[C@@H](C)C(=O)[C@@H]([C@H](O)CC2CC(=O)NC(=O)C2)C1", "values": [{"measurement": "EC50", "setting": "[4]", "value": "0.66 µM (active)"}, {"measurement": "AC50", "setting": "[5]", "value": "< 0.195 µM (active)"}, {"measurement": "AC50", "setting": "[6]", "value": "> 70 µM (inactive)"}, {"measurement": "EC50", "setting": "[7]", "value": "< 0.1 µM (active)"}, {"measurement": "EC50", "setting": "[8]", "value": "< 0.004 µM (active)"}, {"measurement": "CC50", "setting": "[9]", "value": "0.96 µM (active)"}, {"measurement": "IC50", "setting": "[10]", "value": "1.03 µM (active)"}, {"measurement": "AC50", "setting": "[11]", "value": "0.307 µM (active)"}, {"measurement": "AC50", "setting": "[12]", "value": "4.92 µM (active)"}, {"measurement": "AC50", "setting": "[13]", "value": "2.18 µM (active)"}, {"measurement": "IC50", "setting": "[14]", "value": "0.43 µM (active)"}]}
{"smiles": "O=C1CN(C(=O)COC(=O)c2oc3ccccc3c2COc2ccccc2)c2ccccc2N1", "values": [{"measurement": "IC50", "setting": "[15]", "value": "> 100 µM (active)"}, {"measurement": "IC50", "setting": "[16]", "value": "> 50 µM (inactive)"}]}
{"smiles": "Cc1ccc(Nc2nc(NCC3CCCO3)nc(N)c2[N+](=O)[O-])cc1C", "note": "(stereo not drawn)", "values": [{"measurement": "IC50", "setting": "[17]", "value": "6.09 µM (active)"}, {"measurement": "IC50", "setting": "[18]", "value": "> 111 µM (not active)"}]}
{"smiles": "CCCc1nn(C)c(C(=O)Nc2ccc(CC)cc2)c1Cl", "values": [{"measurement": "IC50", "setting": "[1]", "value": "> 100 µM (active)"}]}
{"smiles": "COc1ccc(C(=O)Nc2ccc(O)c3c(=O)cc(-c4cccc(Cl)c4)oc23)cc1", "values": [{"measurement": "CC50", "setting": "[9]", "value": "2.74 µM (active)"}, {"measurement": "IC50", "setting": "[14]", "value": "> 100 µM (active)"}]}
{"smiles": "COC(=O)c1c(NC(=O)C(Cl)Cl)sc2c1C(C(=O)OC)CC2", "note": "(stereo not drawn)", "values": [{"measurement": "CC50", "setting": "[9]", "value": "34.8 µM (active)"}, {"measurement": "IC50", "setting": "[14]", "value": "27.8 µM (active)"}]}
